The NIST ThermoML archive (doi:10.1021/je900444h)

Assay: mn = molality of the nth substance listed, in mol/kg
Details: 101 kPa, Liquid; for mass density: Vibrating tube method; for viscosity: Capillary tube (Ostwald / Ubbelohde) method

CNC(=O)NC [1,3-dimethylurea] + O
Details	mass density [kg/m3]	viscosity [mPa·s]
283.15 K, m1 = 0.0033	999.7	–
283.15 K, m1 = 0.0331	1000	–
283.15 K, m1 = 0.0995	1000.6	–
283.15 K, m1 = 0.1669	1001.2	–
283.15 K, m1 = 0.2354	1001.8	–
283.15 K, m1 = 0.3039	1002.4	–
283.15 K, m1 = 0.3387	1002.7	–
283.15 K, m1 = 0.4997	1004.2	–
283.15 K, m1 = 0.7491	1006.5	–
283.15 K, m1 = 1.001	1008.7	–
283.15 K, m1 = 1.08	1009.4	–
283.15 K, m1 = 1.5	1013.2	–
283.15 K, m1 = 1.923	1016.8	–
283.15 K, m1 = 2.885	1024.6	–
283.15 K, m1 = 4.005	1032.6	–
283.15 K, m1 = 5.304	1040.7	–
283.15 K, m1 = 6.862	1048.7	–
283.15 K, m1 = 8.726	1056.3	–
283.15 K, m1 = 11.02	1063.4	–
283.15 K, m1 = 15.65	1072.5	–
283.15 K, m1 = 23.15	1079.6	–
288.15 K, m1 = 0.0033	999.1	1.173
288.15 K, m1 = 0.0331	999.4	1.187
288.15 K, m1 = 0.0995	1000	1.212
288.15 K, m1 = 0.1669	1000.5	1.232
288.15 K, m1 = 0.2354	1001.1	1.243
288.15 K, m1 = 0.3039	1001.7	1.255
288.15 K, m1 = 0.3387	1002	1.27
288.15 K, m1 = 0.4997	1003.4	–
288.15 K, m1 = 0.7491	1005.6	1.402
288.15 K, m1 = 1.001	1007.8	–
288.15 K, m1 = 1.08	1008.5	–
288.15 K, m1 = 1.5	1012.1	–
288.15 K, m1 = 1.923	1015.5	1.831
288.15 K, m1 = 2.885	1023	2.225
288.15 K, m1 = 4.005	1030.7	2.746
288.15 K, m1 = 5.304	1038.4	3.342
288.15 K, m1 = 6.862	1046	4.179
288.15 K, m1 = 8.726	1053.3	5.242
288.15 K, m1 = 11.02	1060.1	6.533
288.15 K, m1 = 15.65	1068.9	9.3
288.15 K, m1 = 23.15	1075.7	14.49
293.15 K, m1 = 0.0033	998.2	1.035
293.15 K, m1 = 0.0331	998.5	1.045
293.15 K, m1 = 0.0995	999	1.066
293.15 K, m1 = 0.1669	999.6	1.081
293.15 K, m1 = 0.2354	1000.2	1.094
293.15 K, m1 = 0.3039	1000.8	1.104
293.15 K, m1 = 0.3387	1001	1.117
293.15 K, m1 = 0.4997	1002.4	–
293.15 K, m1 = 0.7491	1004.5	1.228
293.15 K, m1 = 1.001	1006.6	–
293.15 K, m1 = 1.08	1007.3	–
293.15 K, m1 = 1.5	1010.7	–
293.15 K, m1 = 1.923	1014	1.581
293.15 K, m1 = 2.885	1021.2	1.902
293.15 K, m1 = 4.005	1028.5	2.325
293.15 K, m1 = 5.304	1035.9	2.805
293.15 K, m1 = 6.862	1043.3	3.464
293.15 K, m1 = 8.726	1050.2	4.27
293.15 K, m1 = 11.02	1056.8	5.262
293.15 K, m1 = 15.65	1065.3	7.377
293.15 K, m1 = 23.15	1071.9	11.22
298.15 K, m1 = 0.0033	997.1	0.9187
298.15 K, m1 = 0.0331	997.3	0.929
298.15 K, m1 = 0.0995	997.9	0.9456
298.15 K, m1 = 0.1669	998.4	0.9603
298.15 K, m1 = 0.2354	999	0.9716
298.15 K, m1 = 0.3039	999.5	0.9789
298.15 K, m1 = 0.3387	999.8	0.9944
298.15 K, m1 = 0.4997	1001.1	–
298.15 K, m1 = 0.7491	1003.2	1.084
298.15 K, m1 = 1.001	1005.2	–
298.15 K, m1 = 1.08	1005.8	–
298.15 K, m1 = 1.5	1009.2	–
298.15 K, m1 = 1.923	1012.3	1.379
298.15 K, m1 = 2.885	1019.2	1.649
298.15 K, m1 = 4.005	1026.3	1.998
298.15 K, m1 = 5.304	1033.3	2.382
298.15 K, m1 = 6.862	1040.4	2.921
298.15 K, m1 = 8.726	1047	3.535
298.15 K, m1 = 11.02	1053.4	4.342
298.15 K, m1 = 15.65	1061.6	5.955
298.15 K, m1 = 23.15	1068	8.8
303.15 K, m1 = 0.0033	995.7	0.8242
303.15 K, m1 = 0.0331	995.9	0.8316
303.15 K, m1 = 0.0995	996.4	0.8464
303.15 K, m1 = 0.1669	997	0.8592
303.15 K, m1 = 0.2354	997.5	0.8702
303.15 K, m1 = 0.3039	998.1	0.8753
303.15 K, m1 = 0.3387	998.3	0.887
303.15 K, m1 = 0.4997	999.6	–
303.15 K, m1 = 0.7491	1001.6	0.9652
303.15 K, m1 = 1.001	1003.6	–
303.15 K, m1 = 1.08	1004.2	–
303.15 K, m1 = 1.5	1007.4	–
303.15 K, m1 = 1.923	1010.5	1.216
303.15 K, m1 = 2.885	1017.1	1.44
303.15 K, m1 = 4.005	1023.8	1.729
303.15 K, m1 = 5.304	1030.6	2.055
303.15 K, m1 = 6.862	1037.4	2.49
303.15 K, m1 = 8.726	1043.8	3.002
303.15 K, m1 = 11.02	1049.8	3.603
303.15 K, m1 = 15.65	1057.8	4.927
303.15 K, m1 = 23.15	1064	7.122
308.15 K, m1 = 0.4997	997.9	–
308.15 K, m1 = 0.7491	999.8	0.8666
308.15 K, m1 = 1.001	1001.7	–
308.15 K, m1 = 1.08	1002.3	–
308.15 K, m1 = 1.5	1005.4	–
308.15 K, m1 = 1.923	1008.4	1.079
308.15 K, m1 = 2.885	1014.8	1.271
308.15 K, m1 = 4.005	1021.3	1.511
308.15 K, m1 = 5.304	1027.8	1.778
308.15 K, m1 = 6.862	1034.3	2.135
308.15 K, m1 = 8.726	1040.5	2.545
308.15 K, m1 = 11.02	1046.3	3.056
308.15 K, m1 = 15.65	1054	4.116
308.15 K, m1 = 23.15	1060.1	5.865
313.15 K, m1 = 0.4997	996	–
313.15 K, m1 = 0.7491	997.9	0.7797
313.15 K, m1 = 1.001	999.7	–
313.15 K, m1 = 1.08	1000.3	–
313.15 K, m1 = 1.5	1003.3	–
313.15 K, m1 = 1.923	1006.1	0.9649
313.15 K, m1 = 2.885	1012.3	1.127
313.15 K, m1 = 4.005	1018.6	1.336
313.15 K, m1 = 5.304	1024.9	1.56
313.15 K, m1 = 6.862	1031.1	1.859
313.15 K, m1 = 8.726	1037.1	2.195
313.15 K, m1 = 11.02	1042.8	2.626
313.15 K, m1 = 15.65	1050.2	3.513
313.15 K, m1 = 23.15	1056.1	4.918
318.15 K, m1 = 5.304	1021.8	1.38
318.15 K, m1 = 6.862	1027.8	1.632
318.15 K, m1 = 8.726	1033.6	1.906
318.15 K, m1 = 11.02	1039.1	2.268
318.15 K, m1 = 15.65	1046.3	3.024
318.15 K, m1 = 23.15	1052.1	4.196
323.15 K, m1 = 5.304	1018.6	1.222
323.15 K, m1 = 6.862	1024.5	1.44
323.15 K, m1 = 8.726	1030.1	1.681
323.15 K, m1 = 11.02	1035.4	1.983
323.15 K, m1 = 15.65	1042.4	2.646
323.15 K, m1 = 23.15	1048	3.658
328.15 K, m1 = 5.304	1015.9	1.095
328.15 K, m1 = 6.862	1021	1.293
328.15 K, m1 = 8.726	1026.5	1.492
328.15 K, m1 = 11.02	1031.6	1.76
328.15 K, m1 = 15.65	1038.4	2.333
328.15 K, m1 = 23.15	1043.9	3.212
333.15 K, m1 = 5.304	1012.3	1.024
333.15 K, m1 = 6.862	1017.5	1.164
333.15 K, m1 = 8.726	1022.7	1.343
333.15 K, m1 = 11.02	1027.8	1.564
333.15 K, m1 = 15.65	1034.4	2.061
333.15 K, m1 = 23.15	1039.8	2.818
